Measurements taken from patent publication US11000033B2, “Ketone or oxime compound, and herbicide” (NISSAN CHEMICAL CORPORATION, priority 2014, dated 2021).

Assays:
Assay type in all cases: in vivo
[1] = test system: Setaria viridis; assay: Test Example 5: herbicidal effect by foliage application, plastic box (symbol G); settings: 320 g/ha, 3 weeks after application
Method in brief: (§1)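 After sowing into sterilized diluvial soil and growing two weeks under glass at 25° C. to 30° C., seedlings receive a uniform foliar spray of diluted emulsion. Damage is judged visually three weeks on.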

[2] = test system: Echinochloa oryzacola Vasing.; assay: Test Example 1: herbicidal activity, application before weed generation in submerged conditions (symbol A); settings: application herbicide amount 320 g/ha
Method in brief: (§2)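 Scores run 0 to 5 by herbicidal ratio, with 5 meaning 90% or more and 0 meaning 5% or lower, read 3 weeks after treatment. Compound was applied as a diluted emulsion to the water surface of submerged alluvial-soil pots on the day weed seeds were sown.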

[3] = test system: beet; assay: Test Example 5: effect on crop by foliage application, plastic box (symbol f); settings: 320 g/ha, 3 weeks after application
Method in brief: (§3)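 Diluvial soil, sterilized and boxed (21 × 13 × 7 cm), received spot-sown seed covered by about 1.5 cm soil; plants were then greenhouse-grown at 25–30° C.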

[4] = test system: Veronica persica; assay: Test Example 5: herbicidal effect by foliage application, plastic box (symbol R); settings: 320 g/ha, 3 weeks after application
Method in brief: as §1

[5] = test system: Abutilon theophrasti; assay: Test Example 5: herbicidal effect by foliage application, plastic box (symbol M); settings: 320 g/ha, 3 weeks after application
Method in brief: as §1

[6] = test system: rapeseed; assay: Test Example 5: effect on crop by foliage application, plastic box (symbol g); settings: 320 g/ha, 3 weeks after application
Method in brief: as §3

[7] = test system: Echinochloa crus-galli var. crus-galli; assay: Test Example 3: herbicidal effect by foliage application, Wagner pot (symbol H); settings: application herbicide amount 320 g/ha
Method in brief: (§4)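 Rating at 3 weeks post-spray, by defined criteria. Treatment: emulsion diluted with water to a predetermined amount, applied evenly to foliage of 14-day-old plants raised in alluvial soil flooded 0.1–0.5 cm deep at 25–30 °C, rice co-sown.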

[8] = test system: Leptochloa chinensis; assay: Test Example 3: herbicidal effect by foliage application, Wagner pot (symbol D); settings: application herbicide amount 320 g/ha
Method in brief: as §4

[9] = test system: wheat; assay: Test Example 5: effect on crop by foliage application, plastic box (symbol e); settings: 320 g/ha, 3 weeks after application
Method in brief: as §3

[10] = test system: corn; assay: Test Example 5: effect on crop by foliage application, plastic box (symbol c); settings: 320 g/ha, 3 weeks after application
Method in brief: as §3

[11] = test system: Amaranthus retroflexus; assay: Test Example 5: herbicidal effect by foliage application, plastic box (symbol N); settings: 320 g/ha, 3 weeks after application
Method in brief: as §1

[12] = test system: Monochoria vaginalis; assay: Test Example 1: herbicidal activity, application before weed generation in submerged conditions (symbol C); settings: application herbicide amount 320 g/ha
From the text: Herbicidal Activity Test by Application Before Weed Generation in Submerged Conditions
After alluvial soil was placed into 1/10000 are of Wagner pot, water was poured and mixed to form a submerged condition having a water depth of 4 cm. Seeds of Echinochloa oryzacola Vasing., Scirpus juncoides, and Monochoria vaginalis were sowed in a mixed manner in the above pot and thereafter 2.5 leaf stage rice plant seedlings were transplanted thereto. On the day of sowing seeds, the emulsion agent of the compound of the present invention prepared in accordance with Formulation Example 2 was diluted with water so as to be a predetermined herbicide amount and the diluted emulsion agent was applied to the surface of the water. The pot was placed in a greenhouse of 25° C. to 30° C. to grow plant. 3 weeks later from the herbicide application, the effect to each plant was investigated in accordance with the following criteria.
5 Herbicidal ratio of 90% or more (almost completely withered)
4 Herbicidal ratio of 70% or higher and lower than 90%
3 Herbicidal ratio of 40% or higher and lower than 70%
2 Herbicidal ratio of 20% or higher and lower than 40%
1 Herbicidal ratio of 5% or higher and lower than 20%
0 Herbicidal ratio of 5% or lower (almost no effect)

[13] = test system: Echinochloa crus-galli var. crus-galli; assay: Test Example 5: herbicidal effect by foliage application, plastic box (symbol H); settings: 320 g/ha, 3 weeks after application
Method in brief: as §1

[14] = test system: Lolium multiflorum Lam.; assay: Test Example 5: herbicidal effect by foliage application, plastic box (symbol K); settings: 320 g/ha, 3 weeks after application
Method in brief: as §1

[15] = test system: Cyperus difformis; assay: Test Example 3: herbicidal effect by foliage application, Wagner pot (symbol E); settings: application herbicide amount 320 g/ha
Method in brief: as §4

[16] = test system: Avena fatua; assay: Test Example 5: herbicidal effect by foliage application, plastic box (symbol I); settings: 320 g/ha, 3 weeks after application
Method in brief: as §1

[17] = test system: Stellaria media; assay: Test Example 5: herbicidal effect by foliage application, plastic box (symbol P); settings: 320 g/ha, 3 weeks after application
Method in brief: as §1

[18] = test system: Scirpus juncoides; assay: Test Example 1: herbicidal activity, application before weed generation in submerged conditions (symbol B); settings: application herbicide amount 320 g/ha
Method in brief: as §2

[19] = test system: Apera spica-venti; assay: Test Example 5: herbicidal effect by foliage application, plastic box (symbol L); settings: 320 g/ha, 3 weeks after application
Method in brief: as §1

[20] = test system: Chenopodium album; assay: Test Example 5: herbicidal effect by foliage application, plastic box (symbol O); settings: 320 g/ha, 3 weeks after application
Method in brief: as §1

[21] = test system: Digitaria ciliaris; assay: Test Example 5: herbicidal effect by foliage application, plastic box (symbol F); settings: 320 g/ha, 3 weeks after application
Method in brief: as §1

[22] = test system: Alopecurus myosuroides; assay: Test Example 5: herbicidal effect by foliage application, plastic box (symbol J); settings: 320 g/ha, 3 weeks after application
Method in brief: as §1

[23] = test system: Galium spurium; assay: Test Example 5: herbicidal effect by foliage application, plastic box (symbol Q); settings: 320 g/ha, 3 weeks after application
Method in brief: as §1

[24] = test system: soybean; assay: Test Example 5: effect on crop by foliage application, plastic box (symbol d); settings: 320 g/ha, 3 weeks after application
Method in brief: as §3

[25] = test system: transplanted rice plant; assay: Test Example 1: effect on crop, application before weed generation in submerged conditions (symbol a); settings: application herbicide amount 320 g/ha
Method in brief: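 Alluvial soil pots flooded to 4 cm water, sown with Echinochloa oryzacola, Scirpus juncoides and Monochoria vaginalis, then transplanted with 2.5 leaf stage rice seedlings; pre-emergence application. Greenhouse 25° C. to 30° C.; scored 0–5 by herbicidal ratio 3 weeks after application.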

[26] = test system: rice plant; assay: Test Example 5: effect on crop by foliage application, plastic box (symbol b); settings: 320 g/ha, 3 weeks after application
Method in brief: as §3

[27] = test system: directly sowed rice plant; assay: Test Example 3: effect on crop by foliage application, Wagner pot (symbol b); settings: application herbicide amount 320 g/ha
Method in brief: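 Greenhouse culture at 25–30 °C of seeded rice, Cyperus difformis, Leptochloa chinensis and Echinochloa crus-galli var. crus-galli, in alluvial soil held under 0.1–0.5 cm of water in a Wagner pot.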

## CC(CC1CC(OC(=O)N(C)C)=C(c2c(C)cc(-c3ccc(Cl)cc3)cc2C)C1=O)=NOCC(F)(F)F (mixture of isomers) [9-026]
[1]
  G: Setaria viridis, herbicidal effect grade: 4 (Herbicidal ratio of 70% or higher and lower than 90%)
[2]
  A (Echinochloa oryzacola Vasing.) herbicidal effect grade: 4 (Herbicidal ratio of 70% or higher and lower than 90%)
[3]
  f: beet, effect on crop grade: 0 (Herbicidal ratio of 5% or lower (almost no effect))
[4]
  R: Veronica persica, herbicidal effect grade: 0 (Herbicidal ratio of 5% or lower (almost no effect))
[5]
  M: Abutilon theophrasti, herbicidal effect grade: 0 (Herbicidal ratio of 5% or lower (almost no effect))
[6]
  g: rapeseed, effect on crop grade: 0 (Herbicidal ratio of 5% or lower (almost no effect))
[7]; Table 24
  H (Echinochloa crus-galli var. crus-galli) herbicidal effect grade: 0 (Herbicidal ratio of 5% or lower (almost no effect))
[8]; Table 24
  D (Leptochloa chinensis) herbicidal effect grade: 3 (Herbicidal ratio of 40% or higher and lower than 70%)
[9]
  e: wheat, effect on crop grade: 0 (Herbicidal ratio of 5% or lower (almost no effect))
[10]
  c: corn, effect on crop grade: 5 (Herbicidal ratio of 90% or more (almost completely withered))
[11]
  N: Amaranthus retroflexus, herbicidal effect grade: 0 (Herbicidal ratio of 5% or lower (almost no effect))
[12]
  C (Monochoria vaginalis) herbicidal effect grade: 0 (Herbicidal ratio of 5% or lower (almost no effect))
[13]
  H: Echinochloa crus-galli var. crus-galli, herbicidal effect grade: 0 (Herbicidal ratio of 5% or lower (almost no effect))
[14]
  K: Lolium multiflorum Lam., herbicidal effect grade: 0 (Herbicidal ratio of 5% or lower (almost no effect))
[15]; Table 24
  E herbicidal effect grade: 0 (Herbicidal ratio of 5% or lower (almost no effect))
[16]
  I: Avena fatua, herbicidal effect grade: 3 (Herbicidal ratio of 40% or higher and lower than 70%)
[17]
  P: Stellaria media, herbicidal effect grade: 0 (Herbicidal ratio of 5% or lower (almost no effect))
[18]
  B (Scirpus juncoides) herbicidal effect grade: 0 (Herbicidal ratio of 5% or lower (almost no effect))
[19]
  L: Apera spica-venti, herbicidal effect grade: 0 (Herbicidal ratio of 5% or lower (almost no effect))
[20]
  O: Chenopodium album, herbicidal effect grade: 0 (Herbicidal ratio of 5% or lower (almost no effect))
[21]
  F: Digitaria ciliaris, herbicidal effect grade: 5 (Herbicidal ratio of 90% or more (almost completely withered))
[22]
  J: Alopecurus myosuroides, herbicidal effect grade: 0 (Herbicidal ratio of 5% or lower (almost no effect))
[23]
  Q: Galium spurium, herbicidal effect grade: 0 (Herbicidal ratio of 5% or lower (almost no effect))
[24]
  d: soybean, effect on crop grade: 0 (Herbicidal ratio of 5% or lower (almost no effect))
[25]
  a (transplanted rice plant) effect on crop grade: 0 (Herbicidal ratio of 5% or lower (almost no effect))
[26]
  b: directly sowed rice plant, effect on crop grade: 0 (Herbicidal ratio of 5% or lower (almost no effect))
[27]; Table 24
  b (directly sowed rice plant) effect on crop grade: 0 (Herbicidal ratio of 5% or lower (almost no effect))

## COCCOc1cc(C)c(C2=C(O)CC(CC(C)=NOC)C2=O)c(C)c1 (stereo not drawn) [6-098]
[1]
  G: Setaria viridis, herbicidal effect (criteria of Test Example 1): 3 (Herbicidal ratio of 40% or higher and lower than 70%)
[2]
  Herbicidal effect grade, A: Echinochloa oryzacola Vasing.: 0 (Herbicidal ratio of 5% or lower (almost no effect))
[3]
  f: beet, effect on crop (criteria of Test Example 1): 0 (Herbicidal ratio of 5% or lower (almost no effect))
[4]
  R: Veronica persica, herbicidal effect (criteria of Test Example 1): 0 (Herbicidal ratio of 5% or lower (almost no effect))
[5]
  M: Abutilon theophrasti, herbicidal effect (criteria of Test Example 1): 0 (Herbicidal ratio of 5% or lower (almost no effect))
[6]
  g: rapeseed, effect on crop (criteria of Test Example 1): 0 (Herbicidal ratio of 5% or lower (almost no effect))
[7]
  herbicidal effect on H (Echinochloa crus-galli var. crus-galli), grade 0-5: 3 (Herbicidal ratio of 40% or higher and lower than 70%)
[8]
  herbicidal effect on D (Leptochloa chinensis), grade 0-5: 5 (Herbicidal ratio of 90% or more (almost completely withered))
[9]
  e: wheat, effect on crop (criteria of Test Example 1): 2 (Herbicidal ratio of 20% or higher and lower than 40%)
[10]
  c: corn, effect on crop (criteria of Test Example 1): 1 (Herbicidal ratio of 5% or higher and lower than 20%)
[11]
  N: Amaranthus retroflexus, herbicidal effect (criteria of Test Example 1): 0 (Herbicidal ratio of 5% or lower (almost no effect))
[12]
  Herbicidal effect grade, C: Monochoria vaginalis: 0 (Herbicidal ratio of 5% or lower (almost no effect))
[13]
  H: Echinochloa crus-galli var. crus-galli, herbicidal effect (criteria of Test Example 1): 2 (Herbicidal ratio of 20% or higher and lower than 40%)
[14]
  K: Lolium multiflorum Lam., herbicidal effect (criteria of Test Example 1): 5 (Herbicidal ratio of 90% or more (almost completely withered))
[15]
  herbicidal effect on E, grade 0-5: 4 (Herbicidal ratio of 70% or higher and lower than 90%)
[16]
  I: Avena fatua, herbicidal effect (criteria of Test Example 1): 1 (Herbicidal ratio of 5% or higher and lower than 20%)
[17]
  P: Stellaria media, herbicidal effect (criteria of Test Example 1): 0 (Herbicidal ratio of 5% or lower (almost no effect))
[18]
  Herbicidal effect grade, B: Scirpus juncoides: 1 (Herbicidal ratio of 5% or higher and lower than 20%)
[19]
  L: Apera spica-venti, herbicidal effect (criteria of Test Example 1): 4 (Herbicidal ratio of 70% or higher and lower than 90%)
[20]
  O: Chenopodium album, herbicidal effect (criteria of Test Example 1): 0 (Herbicidal ratio of 5% or lower (almost no effect))
[21]
  F: Digitaria ciliaris, herbicidal effect (criteria of Test Example 1): 3 (Herbicidal ratio of 40% or higher and lower than 70%)
[22]
  J: Alopecurus myosuroides, herbicidal effect (criteria of Test Example 1): 3 (Herbicidal ratio of 40% or higher and lower than 70%)
[23]
  Q: Galium spurium, herbicidal effect (criteria of Test Example 1): 0 (Herbicidal ratio of 5% or lower (almost no effect))
[24]
  d: soybean, effect on crop (criteria of Test Example 1): 0 (Herbicidal ratio of 5% or lower (almost no effect))
[25]
  Effect grade on crop, a: transplanted rice plant: 1 (Herbicidal ratio of 5% or higher and lower than 20%)
[26]
  b: directly sowed rice plant, effect on crop (criteria of Test Example 1): 2 (Herbicidal ratio of 20% or higher and lower than 40%)
[27]
  effect on crop b (directly sowed rice plant), grade 0-5: 5 (Herbicidal ratio of 90% or more (almost completely withered))
